Laboratory results published in patent US20230022745A1, “Methods for Labeling a Population of RNA Molecules” (priority 2013, published 2023).
“Also recorded” adds a separate entry of the source.

Key:
Format in all cases: biochemical
[1] = test system: Vaccinia Capping Enzyme (VCE)
[2] = test system: Vaccinia Capping Enzyme (VCE); remark: listed apart in the source
[3] = test system: Cap0 or Cap1 25 mer transcript; settings: 5-135 ng protein, 10 minutes at 30° C.
[4] = test system: 3′ DTB-GTP capped 25mer T7 transcript; settings: 30 minutes at 37° C. in 1× Thermopol Buffer

[N-]=[N+]=N[C@H]1C[C@H](n2cnc3c(=O)[nH]c(N)nc32)O[C@@H]1COP(=O)(O)OP(=O)(O)OP(=O)(O)O [3′-azido-GTP, 3′-Azido-2′,3′ ddGTP, reference compound]
capping of 5′ triphosphorylated RNA by VCE [1]: can be capped

Nc1nc2c(ncn2[C@@H]2O[C@H](COP(=O)(O)OP(=O)(O)OP(=O)(O)O)[C@@H](O)[C@H]2O)c(=O)[nH]1 [GTP, reference compound]
recovery of transcript after streptavidin binding and biotin elution [2]: little to no P^32

3′-DBT-TEG-guanosine 5′ triphosphate [3′ DBT-TEG-GTP]
recovery of transcript after streptavidin binding and biotin elution [2]: selectively bound to the streptavidin beads and eluted with 10 mM biotin; also recorded: recovered after binding to streptavidin | capping of 5′ diphosphate RNA by VCE [1]: substrate for capping | capping of 5′ triphosphorylated RNA by VCE [1]: effectively caps

2′-DBT-TEG-guanosine 5′ triphosphate [2′ DBT-TEG-GTP]
recovery of transcript after streptavidin binding and biotin elution [2]: little to no P^32; also recorded: no better than control GTP for recovery

C#CCO[C@H]1[C@@H](O)[C@H](n2cnc3c(=O)[nH]c(N)nc32)O[C@@H]1COP(=O)(O)OP(=O)(O)OP(=O)(O)O [3′ propargyl-GTP, 3′(O-Propargyl) Guanosine 5′ Triphosphate]
capping of 5′ triphosphorylated RNA by VCE [1]: efficiently incorporated as a modified cap

B1: S. pombe HNT3 protein (protein, UniProt O74859 1-232, looked up)
Aprataxin-like protein: MSVHKTNDAFKVLMNSAKEPIVEDIPKKYRKQSFRDNLKVYIESPESYKNVIYYDDDVVLVRDMFPKSKMHLLLMTRDPHLTHVHPLEIMMKHRSLVEKLVSYVQGDLSGLIFDEARNCLSQQLTNEALCNYIKVGFHAGPSMNNLHLHIMTLDHVSPSLKNSAHYISFTSPFFVKIDTPTSNLPTRGTLTSLFQEDLKCWRCGETFGRHFTKLKAHLQEEYDDWLDKSVSM
decapping of capped RNA [3]: can decap RNA

B2: RppH (protein, UniProt P0A776 1-176, looked up)
RNA pyrophosphohydrolase: MIDDDGYRPNVGIVICNRQGQVMWARRFGQHSWQFPQGGINPGESAEQAMYRELFEEVGLSRKDVRILASTRNWLRYKLPKRLVRWDTKPVCIGQKQKWFLLQLVSGDAEINMQTSSTPEFDGWRWVSYWYPVRQVVSFKRDVYRRVMKEFASVVMSLQENTPKPQNASAYRRKRG
decapping of DTB-GTP-capped RNA [4]: effectively decaps
